Molecular target: T1, human ALK5 (Homo sapiens, UniProt P36897)
T1 sequence (P36897 162-503): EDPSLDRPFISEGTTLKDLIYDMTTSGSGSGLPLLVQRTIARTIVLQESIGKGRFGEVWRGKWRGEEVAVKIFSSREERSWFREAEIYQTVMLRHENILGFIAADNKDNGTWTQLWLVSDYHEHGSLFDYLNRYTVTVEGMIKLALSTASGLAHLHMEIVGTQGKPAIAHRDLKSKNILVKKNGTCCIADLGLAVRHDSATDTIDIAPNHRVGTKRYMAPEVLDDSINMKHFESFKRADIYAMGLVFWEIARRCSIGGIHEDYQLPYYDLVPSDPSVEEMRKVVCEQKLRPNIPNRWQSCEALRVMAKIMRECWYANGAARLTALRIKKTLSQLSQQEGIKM
Assay: ALK5 Enzyme Assay 2 (fluorescence polarisation probe displacement)
Format: binding
Set-up: 6His tagged human ALK5 (residues162-503) was grown and purified from insect cells; 6His; made in house; host or cells: insect cells
Settings: read-out: EAA2: activity (μM) using Enzyme Assay 2
Procedure: The ability of a compound to bind and inhibit ALK5 can be measured by its capacity to displace a probe molecule from recombinant ALK5 in an in vitro assay. Provided the probe molecule is derivatised with a fluorescent probe or is fluorescent itself, the binding affinity can be measured using Fluorescence Polarisation (FP). […] Assay measurements were performed in 50 mM HEPES pH7.4, 10 mM MgCl2, 1 mM DTT, 0.01% CHAPS in a final assay volume of 12 μl. Briefly 6 μl of ALK5 protein, final concentration of 3 μg/mL, was added to each well of a 384 well assay plate containing 12 nL of each concentration of test compound dissolved in DMSO. 6 μL of a solution containing an ALK5 FP probe ((2Z)-3-(6-{4-[2-({4-[(6-chloro[1,3]dioxolo[4,5-b]pyridin-7-yl)amino]-5-(1-methylethoxy)quinazolin-7-yl}oxy)ethyl]piperazin-1-yl}-6-oxohexyl)-2-[(2E,4E)-5-(3-ethyl-1,1-dimethyl-6,8-disulfo-1H-benzo[e]indolium-2-yl)penta-2,4-dien-1-ylidene]-1,1-dimethyl-6-sulfo-2,3-dihydro-1H-benzo[e]indole-8-sulfonate), final concentration 50 nM, and ATP, final concentration 1 μM.

SMILES	IC50 [µM]
COc1cc(Nc2cc(Oc3ccc(C)nc3-c3cccnc3)ccn2)cc(OC)c1OC [Example 172, 4-(6-Methyl-2,3′-bipyridin-3-yloxy)-N-(3,4,5-trimethoxyphenyl)-pyridin-2-amine]	0.061
Cc1ccc(Oc2ccnc(Nc3cccc(C(=O)N4CCC4)c3)c2)c(C)n1 [Example 61, Azetidin-1-yl-(3-{[4-(2,6-dimethylpyridin-3-yl)oxypyridin-2-yl]-amino}phenyl)methanone]	0.0227
Cc1ccc(Oc2ccnc(Nc3ccc(S(=O)(=O)NCCN4CCN(C)CC4)cc3)c2)c(C)n1 [Example 133, 4-{[4-(2,6-Dimethylpyridin-3-yl)oxypyridin-2-yl]amino}-N-[2-(4-methylpiperazin-1-yl)ethyl]benzenesulfonamide]	0.0932
Cc1ccc(Oc2ccnc(Nc3ccc(S(=O)(=O)NCCn4cccn4)cc3)c2)c(C)n1 [Example 136, 4-{[4-(2,6-Dimethylpyridin-3-yl)oxypyridin-2-yl]amino}-N-(2-pyrazol-1-ylethyl)benzenesulfonamide]	0.101
Cc1cc(Oc2ccnc(Nc3ccc(OCCCNC(=O)OC(C)(C)C)cc3)c2)c(-c2ccccn2)nc1C [Example 196, tert-Butyl N-[3-(4-{[4-(5,6-dimethyl-2-pyridin-2-ylpyridin-3-yl)-oxypyridin-2-yl]amino}phenoxy)propyl]carbamate]	0.00903
COC(=O)c1cccc(Nc2cc(Oc3cc(C)c(C)nc3-c3ccccn3)ccn2)c1 [Example 202, Methyl 3-{[4-(5,6-dimethyl-2-pyridin-2-ylpyridin-3-yl)oxypyridin-2-yl]amino}benzoate]	0.0279
COCCCNS(=O)(=O)c1ccc(Nc2cc(Oc3ccc(C)nc3C)ccn2)cc1 [Example 109, 4-{[4-(2,6-Dimethylpyridin-3-yl)oxypyridin-2-yl]amino}-N-(3-methoxypropyl)benzenesulfonamide]	0.269
Cc1ccc(Oc2ccnc(Nc3ccc(CO)cc3)c2)c(-c2ccc(F)cc2)n1 [Example 158, [4-({4-[2-(4-Fluorophenyl)-6-methylpyridin-3-yl]oxypyridin-2-yl}-amino)phenyl]methanol]	0.0315
Cc1cc(Oc2ccnc(Nc3ccc(C(=O)NCCNC(=O)OC(C)(C)C)cc3)c2)c(-c2ccccn2)nc1C [Example 198, tert-Butyl N-{2-[(4-{[4-(5,6-dimethyl-2-pyridin-2-ylpyridin-3-yl)oxypyridin-2-yl]amino}benzoyl)amino]ethyl}carbamate]	0.0147
CC(=O)Nc1ccc(Nc2cc(Oc3ccc(C)nc3C)ccn2)cc1 [Example 123, N-(4-{[4-(2,6-Dimethylpyridin-3-yl)oxypyridin-2-yl]amino}-phenyl)acetamide]	0.0324
Cc1ccc(Oc2ccnc(Nc3ccc(S(=O)(=O)N(C)C)cc3)c2)c(C)n1 [Example 117, 4-{[4-(2,6-Dimethylpyridin-3-yl)oxypyridin-2-yl]amino}-N,N-dimethylbenzenesulfonamide]	0.37
COc1cc(Nc2cc(Oc3ccc(C)nc3-c3ccc(F)cc3)ccn2)cc(OC)c1OC [Example 171, 4-[2-(4-Fluorophenyl)-6-methylpyridin-3-yloxy]-N-(3,4,5-trimethoxyphenyl)pyridin-2-amine]	0.0239
Cc1ccc(Oc2ccnc(Nc3ccc(S(=O)(=O)NCCn4ccnc4)cc3)c2)c(C)n1 [Example 135, 4-{[4-(2,6-Dimethylpyridin-3-yl)oxypyridin-2-yl]amino}-N-(2-imidazol-1-ylethyl)benzenesulfonamide]	0.12
Cc1ccc(Oc2ccnc(Nc3cccc(S(=O)(=O)N4CCOCC4)c3)c2)c(C)n1 [Example 119, 4-(2,6-Dimethylpyridin-3-yl)oxy-N-(3-morpholin-4-ylsulfonyl-phenyl)pyridin-2-amine]	0.0319
Cc1cc(Oc2ccnc(Nc3ccc(CC#N)cc3)c2)c(-c2ccccn2)nc1C [Example 74, 2-(4-{[4-(5,6-Dimethyl-2-pyridin-2-ylpyridin-3-yl)oxypyridin-2-yl]-amino}phenyl)acetonitrile]	0.00488
Cc1ccc(Oc2ccnc(Nc3ccc(CC#N)cc3)c2)c(C)n1 [Example 91, 2-(4-{[4-(2,6-Dimethylpyridin-3-yl)oxypyridin-2-yl]amino}phenyl)-acetonitrile]	0.0286
Cc1ccc(Oc2ccnc(Nc3cccc(CN4CCNCC4)c3)c2)c(C)n1 [Example 176, 4-(2,6-Dimethylpyridin-3-yl)oxy-N-[3-(Piperazin-1-ylmethyl)-phenyl]pyridin-2-amine]	0.00829

SMILES	IC50 [µM]
Cc1ccc(Oc2ccnc(Nc3ccc(CC#N)cc3)c2)c(-c2ccc(F)cc2)n1 [Example 155, 2-[4-({4-[2-(4-Fluorophenyl)-6-methylpyridin-3-yl]oxypyridin-2-yl}amino)phenyl]acetonitrile]	0.0816
Cc1ccc(Oc2ccnc(Nc3ccc(C(=O)NCCNS(=O)(=O)N(C)C)cc3)c2)c(C)n1 [Example 142, 4-{[4-(2,6-Dimethylpyridin-3-yl)oxypyridin-2-yl]amino}-N-[2-(dimethylsulfamoylamino)ethyl]benzamide]	0.0506
CCn1nccc1Nc1cc(Oc2ccc(C)nc2C)ccn1 [Example 88, 4-[(2,6-Dimethylpyridin-3-yl)oxy]-N-(1-ethyl-1H-pyrazol-5-yl)-pyridin-2-amine]	0.205
Cc1ccc(Oc2ccnc(Nc3cccc(CN4CCN(C(C)C(N)=O)CC4)c3)c2)c(C)n1 (stereo not drawn) [Example 190, 2-14-[3-({4-[(2,6-dimethylpyridin-3-yl)oxylpyridin-2-yl}amino)-benzyl]piperazin-1-yl}propanamide]	0.0322
Cc1ccc(Oc2ccnc(Nc3cccc(C(=O)NCC(N)=O)c3)c2)c(C)n1 [Example 67, N-(2-Amino-2-oxoethyl)-3-{[4-(2,6-dimethylpyridin-3-yl)-oxypyridin-2-yl]amino}benzamide]	0.054
Cc1ccc(Oc2ccnc(Nc3cccc(C(=O)N4CCN(C)CC4)c3)c2)c(C)n1 [Example 71, [3-{[4-(2,6-Dimethylpyridin-3-yl)oxypyridin-2-yl]amino}phenyl]-(4-methylpiperazin-1-yl)methanone]	0.096
Cc1cc(Oc2ccnc(Nc3ccc(C(=O)NCCCNC(=O)OC(C)(C)C)cc3)c2)c(-c2ccccn2)nc1C [Example 197, tert-Butyl N-{3-[(4-{[4-(5,6-dimethyl-2-pyridin-2-ylpyridin-3-yl)-oxypyridin-2-yl]amino}benzoyl)amino]propyl}carbamate]	0.0061
CC(=O)NS(=O)(=O)c1ccc(Nc2cc(Oc3ccc(C)nc3C)ccn2)cc1 [Example 107, N-{4-[4-(2,6-Dimethylpyridin-3-yloxy)pyridin-2-ylamino]phenyl-sulfonyl}acetamide]	0.592
Cc1ccc(Oc2ccnc(Nc3ccc(C(N)=O)cc3)c2)c(C)n1 [Example 92, 4-{[4-(2,6-Dimethylpyridin-3-yl)oxypyridin-2-yl]amino}benzamide]	0.0694
Cc1cc(Oc2ccnc(Nc3cccc(OCCN4CCOCC4)c3)c2)c(-c2ccccn2)nc1C [Example 79, 4-(5,6-Dimethyl-2-pyridin-2-ylpyridin-3-yl)oxy-N-[3-(2-morpholin-4-ylethoxy)phenyl]pyridin-2-amine]	0.0396
Cc1cc(Oc2ccnc(Nc3ccc(OCCNC(=O)OC(C)(C)C)cc3)c2)c(-c2ccccn2)nc1C [Example 195, tert-Butyl N-[2-(4-{[4-(5,6-dimethyl-2-pyridin-2-ylpyridin-3-yl)-oxypyridin-2-yl]amino}phenoxy)ethyl]carbamate]	0.0121
Cc1ccc(Oc2ccnc(Nc3cccc(CN4CCN(CC(=O)NC5CC5)CC4)c3)c2)c(C)n1 [Example 188, N-cyclopropyl-2-{4-[(3-{[4-(2,6-dimethylpyridin-3-yl)oxypyridin-2-yl]amino}phenyl)methyl]piperazin-1-yl}acetamide]	0.00691
Cc1ccc(Oc2ccnc(Nc3cccc(S(=O)(=O)Nc4ccccc4)c3)c2)c(C)n1 [Example 111, 3-{[4-(2,6-Dimethylpyridin-3-yl)oxypyridin-2-yl]amino}-N-phenylbenzenesulfonamide]	0.621
Cc1cc(Oc2ccnc(Nc3cccc(S(N)(=O)=O)c3)c2)c(-c2ccccn2)nc1C [Example 104, 3-{[4-(5,6-Dimethyl-2-pyridin-2-ylpyridin-3-yl)oxypyridin-2-yl]-amino}benzenesulfonamide]	0.0121
Cc1ccc(Oc2ccnc(Nc3ccccn3)c2)c(C)n1 [Example 153, 4-(2,6-Dimethylpyridin-3-yl)oxy-N-pyridin-2-ylpyridin-2-amine]	0.0238
Cc1ccc(Oc2ccnc(Nc3cccc(CN4CCN(C(=O)CC(N)=O)CC4)c3)c2)c(C)n1 [Example 187, 3-{4-[(3-{[4-(2,6-Dimethylpyridin-3-yl)oxypyridin-2-yl]amino}phenyl)methyl]piperazin-1-yl}-3-oxopropanamide]	0.0232
